Experimental data: patent US10098827B2 (L'OREAL, priority 2014, dated 2018)

Biological target: T1, human leukocyte elastase (HLE) (Homo sapiens, UniProt P08246)
T1 construct: CEREP (contract assay)
T1 sequence (P08246 30-267): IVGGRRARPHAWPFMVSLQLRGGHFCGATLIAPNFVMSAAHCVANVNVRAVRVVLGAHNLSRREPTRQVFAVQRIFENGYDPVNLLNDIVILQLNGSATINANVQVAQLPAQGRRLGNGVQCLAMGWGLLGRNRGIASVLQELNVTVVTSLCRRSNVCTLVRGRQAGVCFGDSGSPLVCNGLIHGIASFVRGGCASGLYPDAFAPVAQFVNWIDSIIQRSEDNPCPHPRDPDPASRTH
Assay: Human Elastase Assay test (CEREP catalog), photometry
Type: biochemical
Conditions: for inhibition at 1000 µM: compound at 1 mM, reference substrate MeOSAAPV-pNa at 0.1 mM, photometry, read-out: Elastase inhibition activity (conc 1 mM); for IC50: human elastase, read-out: IC50 (concentration that produces 50% inhibition of the human elastase activity)
Procedure: The molecules have been evaluated in vitro on a Human Elastase Assay test, available in the CEREP catalog.
The results are expressed as a percentage of activity versus a specific control (activity measured with compounds of the invention/control activity without the compound of the invention)×100.
The control is the enzymatic activity of human leukocyte elastase (HLE) on a reference substrate (MeOSAAPV-pNa at 0.1 mM).
The detection method used is photometry.
This method is described in the literature: Adeyemi et al 1990, J. Pharm. Pharmacol. 42, 487-490.
The concentration that produces 50% inhibition of the human elastase activity (IC50) was measured.

| Structure (SMILES) | inhibition at 1000 µM [%] | IC50 [mM] | effectiveness for inhibiting elastase activity compared with the compound of the prior art (comparison in words) |
| --- | --- | --- | --- |
| CC(=O)N(c1ccc(C(=O)O)c(O)c1)[C@H](C(=O)NCC(=O)O)C(C)C [Compound 1, N-ACETYL-N-(4-CARBOXY-3-HYDROXYPHENYL)VALYLGLYCINE] | 98 |  |  |
| CC(=O)N(c1ccc(C(=O)O)c(C(=O)O)c1)[C@H](C(=O)NCC(=O)O)C(C)C [Compound 2, N-ACETYL-N-(3,4-DICARBOXYPHENYL)VALYLGLYCINE] | 98 |  |  |
| CC(=O)N(c1cc(C(=O)O)cc(C(=O)O)c1)[C@H](C(=O)NCC(=O)O)C(C)C [Compound 3, N-ACETYL-N-(3,5-DICARBOXYPHENYL)VALYLGLYCINE] | 98 |  |  |
| CC(=O)N(c1cccc(C#N)c1)C(C(=O)NCC(=O)O)C(C)C (centres unmarked) [Compound 4] | 35 | 5.6 | clearly more effective than the compound of the prior art |

Now from value to compound, other results behind:

| inhibition at 1000 µM [%] | IC50 [mM] | Structure (SMILES) | effectiveness for inhibiting elastase activity compared with the compound of the prior art (comparison in words) |
| --- | --- | --- | --- |
| 62 |  | CCOC(=O)c1cc(N(C(C)=O)[C@H](C(=O)NCC(=O)O)C(C)C)ccc1O [Compound 5, N-ACETYL-N-[3-(ETHOXYCARBONYL)-4-HYDROXYPHENYL]VALYLGLYCINE] |  |
| 65 |  | COC(=O)c1cc(C(=O)OC)cc(N(C(C)=O)C(C(=O)NCC(=O)O)C(C)C)c1 (centres unmarked) [Compound 6, N-ACETYL-N-[3,5-BIS(METHOXYCARBOXY)PHENYL]VALYLGLYCINE] |  |
| 62 |  | CC(=O)N(c1cccc(O)c1)[C@H](C(=O)NCC(=O)O)C(C)C [Compound 7, N-ACETYL-N-(3-HYDROXYPHENYL)VALYLGLYCINE] |  |
| 88 |  | CC(=O)N(c1ccc(C(=O)O)cc1)C(C(=O)NCC(=O)O)C(C)C (centres unmarked) [Compound 8] |  |
|  | 6.38 | CC(=O)N(c1cccc(C(F)(F)F)c1)C(C(=O)NCC(=O)O)C(C)C (centres unmarked) [Z, reference compound] |  |
